Measurements as given in the supplement of paper PMC10307832.

How the values were obtained:
Assay in all cases: relative viability (nuclei count vs DMSO), 5 days (fraction); higher = more cells survive
[1] = compound: CN(C)C[C@@H]1CCn2cc(c3ccccc32)C2=C(C(=O)NC2=O)c2cn(c3ccccc23)CCO1 [Ruboxistaurin] + CC(=O)c1c(C)c2cnc(Nc3ccc(N4CCNCC4)cn3)nc2n(C2CCCC2)c1=O [Palbociclib] (partner 0.5 µM)
How it was run: (§1)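 Nuclei were stained with Hoechst during a one-step fixation (final 0.05% Triton X-100, 1% formaldehyde, 1 ug/ml Hoechst) carried out 5 days after dosing, then counted on 4× images. The cells, lung cancer lines in 1536-well plates, had been dosed by pin tool the day after seeding with one drug alone or a fixed anchor-drug dose plus five library-drug doses (not always all listed) in √10 steps. Relative viability is the nuclei count in treated wells divided by that in vehicle wells, and each value is the median of duplicate plates.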

[2] = compound: CN(C)C[C@@H]1CCn2cc(c3ccccc32)C2=C(C(=O)NC2=O)c2cn(c3ccccc23)CCO1 [Ruboxistaurin] + CC(C)C[C@H](NC(=O)[C@H](Cc1ccccc1)NC(=O)c1cnccn1)B(O)O [Bortezomib] (partner 0.002 µM)
How it was run: as §1

[3] = compound: CN(C)C[C@@H]1CCn2cc(c3ccccc32)C2=C(C(=O)NC2=O)c2cn(c3ccccc23)CCO1 [Ruboxistaurin] + COc1cc2c(Oc3ccc(NC(=O)C4(C(=O)Nc5ccc(F)cc5)CC4)cc3F)ccnc2cc1OCCCN1CCOCC1 [Foretinib] (partner 0.25 µM)
How it was run: as §1

[4] = compound: CN(C)C[C@@H]1CCn2cc(c3ccccc32)C2=C(C(=O)NC2=O)c2cn(c3ccccc23)CCO1 [Ruboxistaurin] + Nc1nc2[nH]cc(CCc3ccc(C(=O)N[C@@H](CCC(=O)O)C(=O)O)cc3)c2c(=O)[nH]1 [Pemetrexed] (partner 0.2 µM)
How it was run: as §1

[5] = compound: CN(C)C[C@@H]1CCn2cc(c3ccccc32)C2=C(C(=O)NC2=O)c2cn(c3ccccc23)CCO1 [Ruboxistaurin] + Nc1ncn([C@H]2C[C@H](O)[C@@H](CO)O2)c(=O)n1 [Decitabine] (partner 2 µM)
How it was run: as §1

| Cell Line | relative viability ([1]; first compound 0.08 µM) | relative viability ([1]; first compound 0.8 µM) | relative viability ([1]; first compound 2.53 µM) | relative viability ([1]; first compound 8 µM) | relative viability ([2]; first compound 0.08 µM) | relative viability ([2]; first compound 0.8 µM) | relative viability ([2]; first compound 2.53 µM) | relative viability ([2]; first compound 8 µM) | relative viability ([3]; first compound 0.08 µM) | relative viability ([3]; first compound 0.8 µM) | relative viability ([3]; first compound 2.53 µM) | relative viability ([3]; first compound 8 µM) | relative viability ([4]; first compound 0.08 µM) | relative viability ([4]; first compound 0.8 µM) | relative viability ([4]; first compound 2.53 µM) | relative viability ([4]; first compound 8 µM) | relative viability ([5]; first compound 0.08 µM) | relative viability ([5]; first compound 0.8 µM) | relative viability ([5]; first compound 2.53 µM) | relative viability ([5]; first compound 8 µM) |
| --- | --- | --- | --- | --- | --- | --- | --- | --- | --- | --- | --- | --- | --- | --- | --- | --- | --- | --- | --- | --- |
| HCC-366 | 0.401 | 0.354 | 0.392 | 0.328 | 1.05 | 1.05 | 1.05 | 0.986 | 1.08 | 0.919 | 0.882 | 0.874 | 0.181 | 0.182 | 0.158 | 0.209 | 0.361 | 0.351 | 0.325 | 0.317 |
| HCC-827 | 0.529 | 0.478 | 0.621 | 0.489 | 1.01 | 1.01 | 1.06 | 1.14 | 1.17 | 1.03 | 1.03 | 1 | 0.265 | 0.252 | 0.268 | 0.28 | 0.349 | 0.344 | 0.376 | 0.319 |
| HOP-62 | 0.516 | 0.462 | 0.471 | 0.458 | 0.736 | 0.536 | 0.734 | 0.642 | 1.13 | 1.07 | 1.13 | 1.22 | 0.299 | 0.241 | 0.298 | 0.31 | 0.21 | 0.242 | 0.251 | 0.268 |
| IA-LM | – | – | – | – | 0.891 | 0.669 | 1.1 | 0.98 | 1.14 | 1.11 | 1.31 | 1.38 | – | – | – | – | – | – | – | – |
| LC-2-ad | 0.469 | 0.424 | 0.45 | 0.532 | 1.17 | 0.929 | 1.15 | 1.06 | 1.03 | 0.905 | 1.02 | 0.747 | 0.259 | 0.284 | 0.285 | 0.282 | 0.71 | 0.887 | 0.753 | 0.847 |
| LK-2 | 0.768 | 0.726 | 0.75 | 0.74 | – | – | – | – | 1.32 | 0.962 | 0.927 | 0.892 | 0.266 | 0.346 | 0.309 | 0.242 | 0.356 | 0.315 | 0.402 | 0.238 |
| NCI-H358 | 0.14 | 0.128 | 0.129 | 0.131 | – | – | – | – | 0.878 | 0.603 | 0.829 | 0.535 | 0.171 | 0.175 | 0.177 | 0.162 | 0.227 | 0.205 | 0.246 | 0.256 |
| NCI-H522 | 1.06 | 1.06 | 1.21 | 1.25 | – | – | – | – | – | – | – | – | 1.06 | 0.791 | 1.18 | 1.02 | 0.753 | 0.671 | 0.667 | 0.658 |
| NCI-H596 | – | – | – | – | 0.978 | 0.443 | 0.932 | 1 | 0.817 | 0.671 | 0.766 | 0.679 | 0.542 | 0.473 | 0.478 | 0.444 | 0.978 | 0.892 | 0.987 | 0.973 |
| NCI-H727 | 0.596 | 0.688 | 0.745 | 0.707 | 0.974 | 0.85 | 0.986 | 0.69 | 1.15 | 0.718 | 0.84 | 0.645 | – | – | – | – | 0.862 | 0.839 | 0.976 | 0.639 |
| NCI-H1395 | 0.657 | 0.579 | 0.63 | 0.553 | – | – | – | – | 0.993 | 0.904 | 1.02 | 0.911 | 1.04 | 0.768 | 0.917 | 0.782 | 0.666 | 0.667 | 0.781 | 0.686 |
| NCI-H1563 | – | – | – | – | 0.871 | 0.763 | 0.933 | 0.775 | 1.03 | 0.892 | 0.946 | 0.856 | 0.831 | 0.724 | 0.987 | 0.656 | – | – | – | – |
| NCI-H1703 | – | – | – | – | 0.401 | 0.319 | 0.382 | 0.237 | 0.367 | – | 0.408 | 0.327 | – | – | – | – | – | – | – | – |
| NCI-H1792 | 0.632 | 0.617 | 0.645 | 0.669 | 0.995 | 0.928 | 0.915 | 1.03 | – | – | – | – | 0.845 | 0.659 | 0.749 | 0.584 | 0.63 | 0.479 | 0.491 | 0.554 |
| NCI-H1793 | 0.302 | – | 0.296 | 0.373 | – | – | – | – | 0.637 | 0.576 | 0.652 | 0.687 | 1.13 | – | 1.03 | 0.876 | 0.461 | – | 0.614 | 0.549 |
| NCI-H1944 | 0.347 | 0.298 | 0.343 | 0.295 | – | – | – | – | 0.933 | 0.844 | 0.856 | 0.719 | 0.6 | 0.55 | 0.667 | 0.659 | 0.439 | 0.403 | 0.405 | 0.46 |
| NCI-H2170 | 0.397 | 0.337 | 0.371 | 0.386 | – | – | – | – | 1.02 | 1.02 | 1.05 | 1.05 | 0.274 | 0.263 | 0.248 | 0.303 | 0.464 | 0.472 | 0.509 | 0.458 |
| NCI-H2228 | 0.845 | 0.631 | 0.863 | 0.693 | 1.33 | 0.708 | 1.08 | 0.941 | 0.906 | 0.772 | 0.86 | 0.729 | 0.387 | 0.335 | 0.337 | 0.322 | – | – | – | – |
| SK-MES-1 | 0.331 | 0.27 | 0.331 | 0.361 | – | – | – | – | 1.08 | 0.791 | 0.969 | 0.858 | 0.997 | 0.899 | 1.01 | 0.863 | 0.382 | 0.363 | 0.389 | 0.427 |
| SW 900 | 0.598 | 0.499 | 0.681 | 0.553 | – | – | – | – | 0.918 | 0.872 | 0.833 | 0.955 | 0.479 | 0.421 | 0.489 | 0.491 | 0.4 | 0.395 | 0.5 | 0.566 |
